One compound from ChEMBL document CHEMBL3243969, “Synthesis and chemical carcinogen inhibitory activity of 2-tert-butyl-4-hydroxyanisole” (J Med Chem, 1979) can be followed below.

Several values for one entry are separate records, joined by “and”; a condition that tells them apart may be missing. Equal values may be shown once.

Series [1] relates to Mus musculus. As to the kind of experiment: Toxicity in ICR/Ha mouse forestomach assessed as body weight gained at 5 mg/kg administered through diet for 1 week prior to benzo[alpha]pyrene challenge and continued additional 2 days post last dose of benzo[alpha]pyrene relative to control. Format: organism-based, Stomach. The conditions noted are these: in vivo, po. More on the design: dose 5 mg/kg.

The subject of series [2] is Mus musculus. As to the kind of experiment: Toxicity in ICR/Ha mouse forestomach assessed as diet intake at 5 mg/kg administered through diet for 1 week prior to benzo[alpha]pyrene challenge and continued additional 2 days post last dose of benzo[alpha]pyrene (reference value: 4.3 g/day). Format: organism-based, Stomach. More on the design: dose 5 mg/kg. The conditions noted are these: in vivo, po.

For series [3], the system named is Mus musculus. As to the kind of experiment: Antineoplastic activity in ICR/Ha mouse forestomach assessed as decrease in benzo[alpha]pyrene-induced tumor incidence at 5 mg/kg administered through diet for 1 week prior to benzo[alpha]pyrene challenge and continued additional 2 days post last dose of benzo[alpha]pyrene by dissecting microscopic analysis relative to control. Format: functional, Stomach. Also on record: scale not given: the % may be the effect or the level left.

Series [4] relates to Mus musculus. As to the kind of experiment: Antineoplastic activity in ICR/Ha mouse forestomach assessed as inhibition of benzo[alpha]pyrene-induced tumor growth at 5 mg/kg administered through diet for 1 week prior to benzo[alpha]pyrene challenge and continued additional 2 days post last dose of benzo[alpha]pyrene by dissecting microscopic analysis relative to control. Format: functional, Stomach.

Series [5] can be described thus: Antioxidant activity of the compound relative to control. Format: functional.

For the compound `COc1ccc(O)c(C(C)(C)C)c1.COc1ccc(O)cc1C(C)(C)C` [BUTYLATED HYDROXYANISOLE], the Activity was 10.8 g and 7.4 g with Mus musculus [1]; 3.6 g/day and 3.7 g/day in the series on Mus musculus [2]; 30% and 10% with Mus musculus [3]. Also, the TGI in the series with Mus musculus [4] (5 mg/kg) worked out at 50%. The inhibition in vivo at 5 mg/kg in the series on Mus musculus [4] (Mus musculus, ICR/Ha, Stomach, read-out: TGI) was 70%. Also, the fold change (FC) in series [5] was 1.1 and 0.4.
